According to patent US8389557B2, “Triazole derivatives useful as Axl inhibitors” (Rigel Pharmaceuticals, Inc., priority 2005, dated 2013):

Target: T1, Axl (Homo sapiens, UniProt P30530)
T1 construct: endogenous in cells; host or cells: HeLa cells
T1 sequence (P30530 26-894): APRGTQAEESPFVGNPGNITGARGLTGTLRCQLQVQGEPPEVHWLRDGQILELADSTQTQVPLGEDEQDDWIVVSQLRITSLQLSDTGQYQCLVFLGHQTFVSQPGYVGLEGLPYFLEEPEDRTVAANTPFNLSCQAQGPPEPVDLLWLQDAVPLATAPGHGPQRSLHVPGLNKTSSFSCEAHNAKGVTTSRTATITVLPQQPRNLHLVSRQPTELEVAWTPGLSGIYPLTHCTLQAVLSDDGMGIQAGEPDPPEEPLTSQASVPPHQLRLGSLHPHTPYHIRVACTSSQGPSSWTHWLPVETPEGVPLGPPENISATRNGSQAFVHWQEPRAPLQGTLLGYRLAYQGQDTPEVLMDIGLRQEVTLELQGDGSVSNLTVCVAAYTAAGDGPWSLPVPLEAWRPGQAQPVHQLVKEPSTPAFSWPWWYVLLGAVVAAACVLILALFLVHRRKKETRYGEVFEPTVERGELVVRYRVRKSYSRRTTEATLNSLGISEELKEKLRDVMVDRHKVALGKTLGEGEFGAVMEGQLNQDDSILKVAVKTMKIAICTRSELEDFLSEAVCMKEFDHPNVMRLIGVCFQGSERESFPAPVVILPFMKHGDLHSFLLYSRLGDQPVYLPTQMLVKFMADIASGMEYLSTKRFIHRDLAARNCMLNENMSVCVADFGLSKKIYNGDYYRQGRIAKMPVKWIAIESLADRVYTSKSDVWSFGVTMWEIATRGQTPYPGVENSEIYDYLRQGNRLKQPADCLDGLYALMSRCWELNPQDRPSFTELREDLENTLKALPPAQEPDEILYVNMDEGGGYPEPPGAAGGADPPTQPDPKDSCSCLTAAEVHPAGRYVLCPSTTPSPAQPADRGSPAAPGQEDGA
Experiment: Phospho-Akt in-cell Western assay (inhibition of Axl activity)
Format: cell-based
How it was run: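 HeLa cells on poly-L-lysine, starved 24 h in 0.5% FCS DMEM with Axl/Fc 500 ng/mL, pre-treated with compound 1 h at 37° C. Axl stimulated 5 min by anti-Axl/anti-mouse antibody cross-linking. Fixed cells probed with anti-phospho-Akt and HRP secondary, chemiluminescence read.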

[1] = inhibition of Axl activity, Table 1
[2] = inhibition of Axl activity, phospho-Akt in-cell Western assay, Table 1
[3] = Table 2, Hela cells, Axl antibody cross-linking stimulation, phospho-Akt chemiluminescence
[4] = Table 5, Hela cells, Axl antibody cross-linking stimulation, phospho-Akt chemiluminescence
[5] = Table 7, Hela cells, Axl antibody cross-linking stimulation, phospho-Akt chemiluminescence

Work on `CS(=O)(=O)c1ccc(C(=O)n2nc(Nc3ccc4c(c3)OCCO4)nc2N)cc1` [compound 248, 5-amino-3-(1,4-benzodioxan-6-yl)amino-1-[(4-methylsulfonyl)phenyl]carbonyl-1H-1,2,4-triazole] yielded an IC50 [1] greater than 20 µM.
`Nc1nc(Nc2ccc(OCCN3CCCC3)c(F)c2)nn1C(=O)c1ccc(N2CCOCC2)cc1` [compound 262, 5-amino-3-[4-[2-(pyrrolidin-1-yl)ethoxy]-3-fluorophenyl]amino-1-[4-(morpholin-4-yl)phenyl]carbonyl-1H-1,2,4-triazole] gave an IC50 [2] of less than 1 µM.
`CCOc1cccc(Nc2nc(N)n(C(=O)c3ccc(OC(C)C)cc3)n2)c1` [compound 125, 5-amino-3-[3-(ethoxy)phenylamino]-1-(4-(iso-propoxy)phenyl)carbonyl-1H-1,2,4-triazole] was tested, and the IC50 [1] was 1 to 10 µM.
`CC(C)(C)c1ccc(C(=O)n2nc(Nc3ccc(N4CCCC4)cc3)nc2N)cc1` [compound 297, 5-amino-1-(4-(tert-butyl)phenyl)carbonyl-3-[4-(pyrrolidin-1-yl)phenylamino]-1H-1,2,4-triazole] was tested, and the IC50 [2] was greater than 20 µM.
Work on `Nc1nc(Nc2ccc(OCCN3CCCC3)cc2)nn1C(=O)c1ccc(-c2cccs2)cc1` [compound 311, 5-amino-1-(4-(thien-2-yl)phenyl)carbonyl-3-[4-[2-(pyrrolidin-1-yl)ethoxy]phenylamino]-1H-1,2,4-triazole] yielded an IC50 [2] of less than 1 µM.
For `Nc1nc(Nc2ccc(OCCN3CCCC3)cc2)nn1C(=O)c1ccc(Oc2ccccc2)cc1` [compound 269, 5-amino-1-(4-(phenoxy)phenyl)carbonyl-3-[4-[2-(pyrrolidin-1-yl)ethoxy]phenylamino]-1H-1,2,4-triazole], the IC50 [2] was less than 1 µM.
`COc1cccc(C(=O)n2nc(Nc3ccc(OCCN4CCCCC4)cc3)nc2N)c1` [compound 80, 5-amino-1-(3-(methoxy)phenyl)carbonyl-3-[4-[2-(piperidin-1-yl)ethoxy]phenylamino]-1H-1,2,4-triazole] gave an IC50 [1] of less than 1 µM.
For `CC(C)(C)Oc1ccc(C(=O)n2nc(N)nc2Nc2ccc(N3CCCC3)cc2)cc1` [compound 292, 3-amino-1-(4-(tert-butoxy)phenyl)carbonyl-5-(4-(pyrrolidin-1-yl)phenylamino]-1H-1,2,4-triazole], the IC50 [3] was greater than 20 µM.
With `Cc1cccc(NC(=O)n2nc(N)nc2Nc2ccc(OCCN3CCCCC3)cc2)c1` [compound 187, 3-amino-N-(3-(methyl)phenyl)-5-[4-[2-(piperidin-1-yl)ethoxy]phenylamino]-1H-1,2,4-triazole-1-carboxamide] the IC50 (Table 8, Hela cells, Axl antibody cross-linking stimulation, phospho-Akt chemiluminescence) was 1 to 10 µM.
Molecule `COC(=O)COc1ccc(Nc2nc(N)n(C(=O)c3ccc(OC(C)C)cc3)n2)cc1` [compound 157, 5-amino-1-(4-(iso-propoxy)phenyl)carbonyl-3-[4-(methoxycarbonylmethoxy)phenylamino]-1H-1,2,4-triazole] has an IC50 [1] of 1 to 10 µM.
`CN(C)c1ccc(C(=O)n2nc(N)nc2NC2C3C=CC(C3)C2C(N)=O)cc1` (stereo not drawn) [compound 349, 3-amino-1-(4-(dimethylamino)phenyl)carbonyl-5-[(3-(aminocarbonyl)bicyclo[2.2.1]hept-5-en-2-yl)amino]-1H-1,2,4-triazole] gave an IC50 (Table 6, Hela cells, Axl antibody cross-linking stimulation, phospho-Akt chemiluminescence) greater than 20 µM.
Work on `CN(C)CCOc1ccc(Nc2nc(N)n(C(=O)c3ccc4c(c3)NC(=O)C(C)(C)O4)n2)cc1` [compound 86, 5-amino-3-[4-[2-(dimethylamino)ethoxy]phenylamino]-1-(2,2-dimethyl-2H-benzo[b][1,4]oxazin-3(4H)-on-6-yl)carbonyl-1H-1,2,4-triazole] yielded an IC50 (Table 3, Hela cells, Axl antibody cross-linking stimulation, phospho-Akt chemiluminescence) of less than 1 µM.
`CN(C)c1cccc(C(=O)n2nc(Nc3ccc(OCCN4CCCC4)cc3)nc2N)c1` [compound 197, 5-amino-1-(3-(dimethylamino)phenyl)carbonyl-3-[4-[2-(pyrrolidin-1-yl)ethoxy]phenylamino]-1H-1,2,4-triazole] gave an IC50 [2] greater than 20 µM.
With `CC(C)c1ccc(C(=O)n2nc(Nc3ccc4c(c3)OCCO4)nc2N)cc1` [compound 232, 5-amino-3-(1,4-benzodioxan-6-yl)amino-1-(4-iso-propylphenyl)carbonyl-1H-1,2,4-triazole] the IC50 [1] was 1 to 10 µM.
Molecule `Cc1cccc(C(=O)n2nc(Nc3ccc4[nH]ncc4c3)nc2N)c1` [compound 154, 5-amino-3-(indazol-5-yl)amino-1-(3-(methyl)phenyl)carbonyl-1H-1,2,4-triazole] has an IC50 [4] of 1 to 10 µM.
Molecule `Nc1nc(Nc2ccc3c(c2)OCCO3)nn1C(=O)c1cccc(Cl)c1` [compound 101, 5-amino-1-(3-(chloro)phenyl)carbonyl-3-(1,4-benzodioxan-6-yl)amino-1H-1,2,4-triazole] has an IC50 [1] of 1 to 10 µM.
`Nc1nc(Nc2ccc3c(c2)OCCO3)nn1C(=O)c1cccc(OC2CCCC2)c1` [compound 127, 5-amino-1-(3-(cyclopentoxy)phenyl)carbonyl-3-(1,4-benzodioxan-6-yl)amino-1H-1,2,4-triazole] was tested, and the IC50 [1] was 1 to 10 µM.
With `CC(=O)N(C)c1ccc(Nc2nc(N)n(C(=O)NC3CCCC3)n2)cc1` [compound 177, 3-[4-(acetyl(methyl)amino)phenyl]amino-5-amino-N-cyclopentyl-1H-1,2,4-triazole-1-carboxamide] the IC50 [5] was greater than 20 µM.
Molecule `COc1ccc(C(=O)n2nc(Nc3ccc(OCCN4CCCC4)cc3)nc2N)cc1F` [compound 381, 5-amino-1-(3-fluoro-4-methoxyphenyl)carbonyl-3-[4-[2-(pyrrolidin-1-yl)ethoxy]phenylamino]-1H-1,2,4-triazole] has an IC50 [2] of less than 1 µM.
For `CNc1ccc(C(=O)n2nc(Nc3ccc(OCCN4CCCC4)cc3)nc2N)cc1` [compound 286, 5-amino-1-(4-(methylamino)phenyl)carbonyl-3-[4-[2-(pyrrolidin-1-yl)ethoxy]phenylamino]-1H-1,2,4-triazole], the IC50 [2] was less than 1 µM.
`COc1ccc(C(=O)n2nc(Nc3ccc(OCCN4CCCCC4)cc3)nc2N)cc1OC` [compound #21, 5-Amino-1-(3,4-(dimethoxy)phenyl)carbonyl-3-[4-[2-(piperidin-1-yl)ethoxy]phenylamino]-1H-1,2,4-triazole] was tested, and the IC50 [2] was less than 1 µM.
Work on `COc1cc(OC)cc(C(=O)n2nc(Nc3ccc(OCCN4CCCCC4)cc3)nc2N)c1` [compound #19, 5-Amino-1-(3,5-(dimethoxy)phenyl)carbonyl-3-[4-[2-(piperidin-1-yl)ethoxy]phenylamino]-1H-1,2,4-triazole] yielded an IC50 [2] of less than 1 µM.
Work on `Nc1nc(Nc2ccc(OCCN3CCCC3)cc2)nn1C(=S)Nc1c(F)cc(F)cc1F` [compound 325, 5-amino-N-(2,4,6-trifluorophenyl)-3-[4-[2-(pyrrolidin-1-yl)ethoxy]phenylamino]-1H-1,2,4-triazole-1-carbothioamide] yielded an IC50 [5] of 1 to 10 µM.
Work on `Cc1ccc(C(=O)n2nc(Nc3ccccc3F)nc2N)cc1` [compound 129, 5-amino-3-[2-(fluoro)phenylamino]-1-(4-(methyl)phenyl)carbonyl-1H-1,2,4-triazole] yielded an IC50 [1] greater than 20 µM.
For `Cc1ccc(C(=O)n2nc(Nc3ccccc3C)nc2N)cc1` [compound 144, 5-amino-3-[2-(methyl)phenylamino]-1-(4-(methyl)phenyl)carbonyl-1H-1,2,4-triazole], the IC50 [1] was greater than 20 µM.
For `Cc1cccc(C(=O)n2nc(Nc3ccc4cn(C)nc4c3)nc2N)c1` [compound 253, 5-amino-3-(1H-2-methyl-indazol-6-yl)amino-1-(3-methylphenyl)carbonyl-1H-1,2,4-triazole], the IC50 [4] was 1 to 10 µM.
Work on `COc1cc(OC)cc(C(=O)n2nc(Nc3ccc(OCCN4CCCC4)cc3)nc2N)c1` [compound #22, 5-Amino-1-(3,5-(dimethoxy)phenyl)carbonyl-3-[4-[2-(pyrrolidin-1-yl)ethoxy]phenylamino]-1H-1,2,4-triazole] yielded an IC50 [2] of less than 1 µM.
With `Cc1cccc(C(=O)n2nc(Nc3ccc4sncc4c3)nc2N)c1` [compound 259, 5-amino-3-(1,2-benzisothiazol-5-yl)amino-1-(3-methylphenyl)carbonyl-1H-1,2,4-triazole] the IC50 [4] was greater than 20 µM.
Molecule `Nc1nc(Nc2ccc(OCCN3CCCC3=O)cc2)nn1C(=O)c1ccc(N2CCOCC2)cc1` [compound 339, 5-amino-1-(4-(morpholin-4-yl)phenyl)carbonyl-3-[4-[2-(pyrrolidin-2-on-1-yl)ethoxy]phenylamino]-1H-1,2,4-triazole] has an IC50 [2] of 1 to 10 µM.
With `CC(C)(C)c1ccc(C(=O)n2nc(N)nc2Nc2ccc(N3CCCC3)cc2)cc1` [compound 298, 3-amino-1-(4-(tert-butyl)phenyl)carbonyl-5-[4-(pyrrolidin-1-yl)phenylamino]-1H-1,2,4-triazole] the IC50 [3] was greater than 20 µM.
